From ChEMBL document CHEMBL5257081, “Discovery of novel PROTACs based on multi-targeted angiogenesis inhibitors” (Bioorg Med Chem Lett, 2023)
Active and inactive are the calls of the source. The rule behind the calls is not given here.

Columns and labels:
[1] = target: T1, von Hippel-Lindau disease tumor suppressor/Vascular endothelial growth factor receptor 2 (Homo sapiens, UniProt P35968+P40337); assay: Protac activity at VHL E3 ubiquitin ligase/VEGFR-2 (unknown origin) assessed as […] by ADP-Glo Kinase assay
Target sequence in this assay (P35968 whole entry): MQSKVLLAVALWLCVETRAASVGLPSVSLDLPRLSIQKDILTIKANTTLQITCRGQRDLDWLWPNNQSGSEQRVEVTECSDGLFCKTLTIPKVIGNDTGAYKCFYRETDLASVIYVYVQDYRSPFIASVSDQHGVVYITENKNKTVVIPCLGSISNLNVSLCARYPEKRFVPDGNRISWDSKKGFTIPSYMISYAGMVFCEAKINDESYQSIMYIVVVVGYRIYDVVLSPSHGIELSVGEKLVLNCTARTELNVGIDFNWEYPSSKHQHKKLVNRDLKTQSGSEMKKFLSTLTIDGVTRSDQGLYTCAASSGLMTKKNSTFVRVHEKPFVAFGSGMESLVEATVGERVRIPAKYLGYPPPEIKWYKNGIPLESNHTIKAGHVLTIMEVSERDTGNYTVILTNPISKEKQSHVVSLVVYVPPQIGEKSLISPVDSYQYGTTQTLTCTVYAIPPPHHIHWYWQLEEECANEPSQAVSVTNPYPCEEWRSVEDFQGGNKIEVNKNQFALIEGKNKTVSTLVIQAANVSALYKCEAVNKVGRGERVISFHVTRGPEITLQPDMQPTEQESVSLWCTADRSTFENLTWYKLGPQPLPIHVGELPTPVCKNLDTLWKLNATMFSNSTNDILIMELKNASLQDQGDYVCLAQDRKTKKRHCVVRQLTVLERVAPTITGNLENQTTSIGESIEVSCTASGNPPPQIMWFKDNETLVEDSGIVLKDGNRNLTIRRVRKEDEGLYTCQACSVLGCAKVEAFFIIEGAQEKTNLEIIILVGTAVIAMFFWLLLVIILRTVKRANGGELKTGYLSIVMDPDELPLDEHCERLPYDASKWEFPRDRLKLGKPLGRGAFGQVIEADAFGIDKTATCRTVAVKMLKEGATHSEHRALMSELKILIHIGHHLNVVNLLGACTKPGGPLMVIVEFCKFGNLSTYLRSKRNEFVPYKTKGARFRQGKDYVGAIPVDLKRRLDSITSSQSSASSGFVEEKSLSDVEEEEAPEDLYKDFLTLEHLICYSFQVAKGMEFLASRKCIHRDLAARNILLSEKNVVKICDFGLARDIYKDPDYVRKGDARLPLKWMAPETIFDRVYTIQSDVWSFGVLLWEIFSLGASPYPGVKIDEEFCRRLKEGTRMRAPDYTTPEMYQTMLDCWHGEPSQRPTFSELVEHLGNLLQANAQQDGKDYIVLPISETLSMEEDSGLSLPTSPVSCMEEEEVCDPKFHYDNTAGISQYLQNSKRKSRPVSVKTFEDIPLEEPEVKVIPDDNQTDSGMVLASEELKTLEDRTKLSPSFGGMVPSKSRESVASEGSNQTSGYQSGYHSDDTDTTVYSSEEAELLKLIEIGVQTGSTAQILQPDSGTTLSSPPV
Target sequence in this assay (P40337 whole entry): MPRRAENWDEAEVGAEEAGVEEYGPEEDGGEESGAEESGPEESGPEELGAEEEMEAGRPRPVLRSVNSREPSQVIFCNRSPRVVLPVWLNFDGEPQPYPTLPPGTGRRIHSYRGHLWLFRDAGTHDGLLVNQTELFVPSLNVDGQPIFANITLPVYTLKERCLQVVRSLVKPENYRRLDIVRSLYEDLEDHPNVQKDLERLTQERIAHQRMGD

[2] = Antiproliferative activity against human EA.hy 926 cells assessed as inhibition of cell growth; assay type: toxicity, cell-based
A549 = assay: Antiproliferative activity against human A549 cells assessed as inhibition of cell growth; assay type: functional, cell-based
MDA-MB-453 = assay: Antiproliferative activity against human MDA-MB-453 cells assessed as inhibition of cell growth; assay type: functional, cell-based
HEK293 = assay: Cytotoxicity against human HEK293 cells assessed as inhibition of cell growth; assay type: toxicity, cell-based
[3] = target: T2, von Hippel-Lindau disease tumor suppressor/Serine/threonine-protein kinase B-raf (Homo sapiens) (UniProt P15056+P40337); assay: Protac activity at E3 ubiquitin ligase/BRAF in human EA.hy 926 cells assessed as degradation of BRAF protein at 10 to 60 uM incubated for 48 hrs by western blot assay; assay type: cell-based; conditions: dose 10-60 µM
T2 sequence (P15056 whole entry, looked up): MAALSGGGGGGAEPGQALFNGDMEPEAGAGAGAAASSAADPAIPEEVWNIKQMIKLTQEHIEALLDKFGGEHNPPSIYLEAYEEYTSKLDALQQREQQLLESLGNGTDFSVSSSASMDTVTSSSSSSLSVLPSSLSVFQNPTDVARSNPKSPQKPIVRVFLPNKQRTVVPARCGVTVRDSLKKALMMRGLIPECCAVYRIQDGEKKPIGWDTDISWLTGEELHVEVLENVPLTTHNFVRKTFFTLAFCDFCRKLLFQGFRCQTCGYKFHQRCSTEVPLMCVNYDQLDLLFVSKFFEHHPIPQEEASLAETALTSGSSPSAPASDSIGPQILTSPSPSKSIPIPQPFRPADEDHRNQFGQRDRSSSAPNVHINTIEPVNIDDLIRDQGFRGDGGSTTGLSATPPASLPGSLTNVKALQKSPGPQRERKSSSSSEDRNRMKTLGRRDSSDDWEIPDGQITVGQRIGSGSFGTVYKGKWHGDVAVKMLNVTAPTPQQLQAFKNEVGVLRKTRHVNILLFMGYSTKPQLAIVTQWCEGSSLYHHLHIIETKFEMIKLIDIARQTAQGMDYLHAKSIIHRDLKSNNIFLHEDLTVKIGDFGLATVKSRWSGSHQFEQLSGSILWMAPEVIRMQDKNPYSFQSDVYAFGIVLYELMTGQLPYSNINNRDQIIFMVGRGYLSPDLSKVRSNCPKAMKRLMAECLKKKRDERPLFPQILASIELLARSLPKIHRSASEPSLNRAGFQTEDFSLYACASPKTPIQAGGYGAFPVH
T2 sequence (P40337 whole entry, looked up): as the sequence (P40337 whole entry) above

[4] = target: T1, von Hippel-Lindau disease tumor suppressor/Vascular endothelial growth factor receptor 2; assay: Protac activity at VHL E3 ubiquitin ligase/VEGFR-2 in human EA.hy 926 cells assessed as degradation of VEGFR-2 protein at 10 to 60 uM incubated for 48 hrs by western blot assay; assay type: cell-based; conditions: dose 10-60 µM
Target sequence in this assay (P35968 20-1356 limits assumed): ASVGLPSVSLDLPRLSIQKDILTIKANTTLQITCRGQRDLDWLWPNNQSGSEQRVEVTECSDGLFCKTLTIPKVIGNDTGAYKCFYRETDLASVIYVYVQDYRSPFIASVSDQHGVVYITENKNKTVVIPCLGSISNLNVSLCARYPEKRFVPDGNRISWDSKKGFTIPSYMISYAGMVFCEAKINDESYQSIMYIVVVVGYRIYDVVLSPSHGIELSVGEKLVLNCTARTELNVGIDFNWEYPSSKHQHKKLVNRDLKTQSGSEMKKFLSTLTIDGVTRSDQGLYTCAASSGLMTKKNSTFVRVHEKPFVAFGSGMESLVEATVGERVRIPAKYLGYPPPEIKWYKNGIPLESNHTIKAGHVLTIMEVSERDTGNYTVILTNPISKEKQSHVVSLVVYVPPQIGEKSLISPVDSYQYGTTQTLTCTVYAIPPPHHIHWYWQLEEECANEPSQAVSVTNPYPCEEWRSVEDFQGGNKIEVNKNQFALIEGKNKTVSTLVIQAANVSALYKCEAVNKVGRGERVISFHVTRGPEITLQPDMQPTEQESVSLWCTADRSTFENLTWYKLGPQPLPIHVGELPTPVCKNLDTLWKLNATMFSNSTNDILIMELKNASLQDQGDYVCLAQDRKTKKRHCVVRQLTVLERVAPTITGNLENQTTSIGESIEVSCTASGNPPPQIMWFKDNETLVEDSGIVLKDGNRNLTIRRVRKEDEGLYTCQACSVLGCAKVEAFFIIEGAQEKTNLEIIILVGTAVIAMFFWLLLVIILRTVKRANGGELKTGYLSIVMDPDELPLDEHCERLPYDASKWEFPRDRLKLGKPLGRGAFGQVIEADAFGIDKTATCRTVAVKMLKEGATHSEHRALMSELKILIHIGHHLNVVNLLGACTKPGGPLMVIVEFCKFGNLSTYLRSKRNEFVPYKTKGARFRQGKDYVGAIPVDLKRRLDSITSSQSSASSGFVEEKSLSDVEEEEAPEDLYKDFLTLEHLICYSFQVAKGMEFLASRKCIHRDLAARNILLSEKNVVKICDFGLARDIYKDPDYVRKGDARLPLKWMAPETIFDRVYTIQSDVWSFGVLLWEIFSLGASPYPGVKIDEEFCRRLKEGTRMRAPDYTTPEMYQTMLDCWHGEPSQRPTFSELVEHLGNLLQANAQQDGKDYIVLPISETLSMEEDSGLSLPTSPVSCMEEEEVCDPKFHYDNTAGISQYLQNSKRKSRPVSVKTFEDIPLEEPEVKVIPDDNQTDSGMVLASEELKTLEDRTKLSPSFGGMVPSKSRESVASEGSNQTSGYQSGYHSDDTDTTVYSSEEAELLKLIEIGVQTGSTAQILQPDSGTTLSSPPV
Target sequence in this assay (P40337 whole entry partner): as the sequence (P40337 whole entry) above

[5] = target: T2, von Hippel-Lindau disease tumor suppressor/Serine/threonine-protein kinase B-raf (Homo sapiens); assay: Protac activity at E3 ubiquitin ligase/BRAF in human EA.hy 926 cells assessed as degradation of BRAF protein at 40 uM incubated for 4 hrs by western blot assay; assay type: cell-based
[6] = target: T2, von Hippel-Lindau disease tumor suppressor/Serine/threonine-protein kinase B-raf (Homo sapiens); assay: Protac activity at E3 ubiquitin ligase/BRAF in human EA.hy 926 cells assessed as degradation of BRAF protein at 40 uM incubated for 48 hrs by western blot assay; assay type: cell-based
[7] = target: T2, von Hippel-Lindau disease tumor suppressor/Serine/threonine-protein kinase B-raf (Homo sapiens); assay: Protac activity at E3 ubiquitin ligase/BRAF in human EA.hy 926 cells assessed as degradation of BRAF protein at 40 uM incubated for 4 to 48 hrs by western blot assay; assay type: cell-based; conditions: time 4-48 hrs, TDE = time-dependent effect
EA.hy 926 [8] = assay: Induction of apoptosis in human EA.hy 926 cells at 0.1 to 40 uM incubated for 72 hrs by annexin-V/PI staining based flow cytometry analysis; assay type: functional, cell-based; conditions: dose 0.1-40 µM
EA.hy 926 [9] = assay: Induction of cell cycle arrest in human EA.hy 926 cells at 0.1 to 40 uM incubated for 48 hrs by propidium-iodide staining based flow cytometry analysis; assay type: functional; conditions: dose 0.1-40 µM
EA.hy 926 [10] = assay: Cytotoxicity against human EA.hy 926 cells; assay type: toxicity, cell-based
[11] = target: T1, von Hippel-Lindau disease tumor suppressor/Vascular endothelial growth factor receptor 2; assay: Protac activity at VHL E3 ubiquitin ligase/VEGFR-2 in human EA.hy 926 cells assessed as degradation of VEGFR-2 protein at […]; assay type: cell-based
Target sequence in this assay (P35968 20-1356 limits assumed): as the sequence (P35968 20-1356 limits assumed) above
Target sequence in this assay (P40337 whole entry partner): as the sequence (P40337 whole entry) above

[12] = target: T2, von Hippel-Lindau disease tumor suppressor/Serine/threonine-protein kinase B-raf (Homo sapiens); assay: Protac activity at E3 ubiquitin ligase/BRAF in human HepG2 cells assessed as degradation of BRAF protein; assay type: cell-based
[13] = target: T2, von Hippel-Lindau disease tumor suppressor/Serine/threonine-protein kinase B-raf (Homo sapiens); assay: Protac activity at E3 ubiquitin ligase/BRAF in human U87 cells assessed as degradation of BRAF protein; assay type: cell-based
[14] = target: T2, von Hippel-Lindau disease tumor suppressor/Serine/threonine-protein kinase B-raf (Homo sapiens); assay: Protac activity at E3 ubiquitin ligase/BRAF in human MDA-MB-231 cells assessed as degradation of BRAF protein; assay type: cell-based
[15] = target: T2, von Hippel-Lindau disease tumor suppressor/Serine/threonine-protein kinase B-raf (Homo sapiens); assay: Protac activity at E3 ubiquitin ligase/BRAF in human EA.hy 926 cells assessed as degradation of BRAF protein at 30 uM preincubated with VH032 for 2 hrs followed by compound addition and measured after 48 hrs by Western blot analysis; assay type: cell-based
[16] = target: T2, von Hippel-Lindau disease tumor suppressor/Serine/threonine-protein kinase B-raf (Homo sapiens); assay: Protac activity at E3 ubiquitin ligase/BRAF in human EA.hy 926 cells assessed as degradation of BRAF protein at 30 uM preincubated with S5 for 2 hrs followed by compound addition and measured after 48 hrs by Western blot analysis; assay type: cell-based
[17] = target: T1, von Hippel-Lindau disease tumor suppressor/Vascular endothelial growth factor receptor 2; assay: Protac activity at VHL E3 ubiquitin ligase/VEGFR-2 in human EA.hy 926 cells assessed as degradation of VEGFR-2 protein preincubated with carfilzomib; assay type: cell-based
Target sequence in this assay (P35968 20-1356 limits assumed): as the sequence (P35968 20-1356 limits assumed) above
Target sequence in this assay (P40337 whole entry partner): as the sequence (P40337 whole entry) above

EA.hy 926 [18] = assay: Induction of apoptosis in human EA.hy 926 cells assessed as viable cells at 0.1 uM incubated for 72 hrs by annexin-V/PI staining based flow cytometry analysis (reference value: 93.8%); assay type: functional; conditions: read-out: Activity
EA.hy 926 [19] = assay: Induction of apoptosis in human EA.hy 926 cells assessed as early apoptotic cells at 0.1 uM incubated for 72 hrs by annexin-V/PI staining based flow cytometry analysis (reference value: 0.71%); assay type: functional
EA.hy 926 [20] = assay: Induction of apoptosis in human EA.hy 926 cells assessed as late apoptotic cells at 0.1 uM incubated for 72 hrs by annexin-V/PI staining based flow cytometry analysis (reference value: 3.07%); assay type: functional
EA.hy 926 [21] = assay: Induction of apoptosis in human EA.hy 926 cells assessed as necrotic cells at 0.1 uM incubated for 72 hrs by annexin-V/PI staining based flow cytometry analysis (reference value: 2.34%); assay type: functional
EA.hy 926 [22] = assay: Induction of apoptosis in human EA.hy 926 cells assessed as viable cells at 1 uM incubated for 72 hrs by annexin-V/PI staining based flow cytometry analysis (reference value: 93.8%); assay type: functional; conditions: read-out: Activity
EA.hy 926 [23] = assay: Induction of apoptosis in human EA.hy 926 cells assessed as early apoptotic cells at 1 uM incubated for 72 hrs by annexin-V/PI staining based flow cytometry analysis (reference value: 0.71%); assay type: functional
EA.hy 926 [24] = assay: Induction of apoptosis in human EA.hy 926 cells assessed as late apoptotic cells at 1 uM incubated for 72 hrs by annexin-V/PI staining based flow cytometry analysis (reference value: 3.07%); assay type: functional
EA.hy 926 [25] = assay: Induction of apoptosis in human EA.hy 926 cells assessed as necrotic cells at 1 uM incubated for 72 hrs by annexin-V/PI staining based flow cytometry analysis (reference value: 2.34%); assay type: functional
EA.hy 926 [26] = assay: Induction of apoptosis in human EA.hy 926 cells assessed as viable cells at 10 uM incubated for 72 hrs by annexin-V/PI staining based flow cytometry analysis (reference value: 93.8%); assay type: functional; conditions: read-out: Activity
EA.hy 926 [27] = assay: Induction of apoptosis in human EA.hy 926 cells assessed as early apoptotic cells at 10 uM incubated for 72 hrs by annexin-V/PI staining based flow cytometry analysis (reference value: 0.71%); assay type: functional
EA.hy 926 [28] = assay: Induction of apoptosis in human EA.hy 926 cells assessed as late apoptotic cells at 10 uM incubated for 72 hrs by annexin-V/PI staining based flow cytometry analysis (reference value: 3.07%); assay type: functional
EA.hy 926 [29] = assay: Induction of apoptosis in human EA.hy 926 cells assessed as necrotic cells at 10 uM incubated for 72 hrs by annexin-V/PI staining based flow cytometry analysis (reference value: 2.34%); assay type: functional
EA.hy 926 [30] = assay: Induction of apoptosis in human EA.hy 926 cells assessed as viable cells at 20 uM incubated for 72 hrs by annexin-V/PI staining based flow cytometry analysis (reference value: 93.8%); assay type: functional; conditions: read-out: Activity
EA.hy 926 [31] = assay: Induction of apoptosis in human EA.hy 926 cells assessed as early apoptotic cells at 20 uM incubated for 72 hrs by annexin-V/PI staining based flow cytometry analysis (reference value: 0.71%); assay type: functional
EA.hy 926 [32] = assay: Induction of apoptosis in human EA.hy 926 cells assessed as late apoptotic cells at 20 uM incubated for 72 hrs by annexin-V/PI staining based flow cytometry analysis (reference value: 3.07%); assay type: functional
EA.hy 926 [33] = assay: Induction of apoptosis in human EA.hy 926 cells assessed as necrotic cells at 20 uM incubated for 72 hrs by annexin-V/PI staining based flow cytometry analysis (reference value: 2.34%); assay type: functional
EA.hy 926 [34] = assay: Induction of apoptosis in human EA.hy 926 cells assessed as viable cells at 40 uM incubated for 72 hrs by annexin-V/PI staining based flow cytometry analysis (reference value: 93.8%); assay type: functional; conditions: read-out: Activity
EA.hy 926 [35] = assay: Induction of apoptosis in human EA.hy 926 cells assessed as early apoptotic cells at 40 uM incubated for 72 hrs by annexin-V/PI staining based flow cytometry analysis (reference value: 0.71%); assay type: functional
EA.hy 926 [36] = assay: Induction of apoptosis in human EA.hy 926 cells assessed as late apoptotic cells at 40 uM incubated for 72 hrs by annexin-V/PI staining based flow cytometry analysis (reference value: 3.07%); assay type: functional
EA.hy 926 [37] = assay: Induction of apoptosis in human EA.hy 926 cells assessed as necrotic cells at 40 uM incubated for 72 hrs by annexin-V/PI staining based flow cytometry analysis (reference value: 2.34%); assay type: functional
EA.hy 926 [38] = assay: Induction of cell cycle arrest in human EA.hy 926 cells assessed as accumulation of cells at S pahse at 0.1 to 40 uM incubated for 48 hrs by propidium-iodide staining based flow cytometry analysis; assay type: functional; conditions: dose 0.1-40 µM

Cc1ncsc1-c1ccc(CNC(=O)[C@@H]2C[C@@H](O)CN2C(=O)[C@@H](NC(=O)CCCCCCCCCCC(=O)n2nc(N)c3c(-c4cccc(NC(=O)Nc5cccc(Cl)c5)c4)cccc32)C(C)(C)C)cc1
IC50 [1]: 0.00707 µM
IC50 [2]: 21 µM
IC50 (A549): > 100 µM
IC50 (MDA-MB-453): > 100 µM
Activity (HEK293): Non-Toxic
Activity [3]: Active
Activity [4]: Active
Activity [5]: Active
Activity [6]: Active
Activity [7]: Tde
Activity (EA.hy 926 [8]): Active
Activity (EA.hy 926 [9]): inactive

CC(C)C[C@H](NC(=O)[C@H](CCc1ccccc1)NC(=O)CN1CCOCC1)C(=O)N[C@@H](Cc1ccccc1)C(=O)N[C@@H](CC(C)C)C(=O)[C@@]1(C)CO1 [CARFILZOMIB]
Activity (EA.hy 926 [10]): Toxic
Activity [11]: Active

Cc1ncsc1-c1ccc(CNC(=O)[C@@H]2C[C@@H](O)CN2C(=O)[C@@H](NC(=O)CCCCCCCCCCCCCCC(=O)n2nc(N)c3c(-c4cccc(NC(=O)Nc5cccc(Cl)c5)c4)cccc32)C(C)(C)C)cc1
IC50 [1]: 0.00212 µM
IC50 [2]: 28.5 µM
IC50 (A549): > 100 µM
IC50 (MDA-MB-453): > 100 µM
Activity (HEK293): Non-Toxic
Activity [3]: Dose-Dependent Effect
Activity [12]: Active
Activity [13]: Active
Activity [14]: inactive

Cc1ncsc1-c1ccc(CNC(=O)[C@@H]2C[C@@H](O)CN2C(=O)[C@@H](NC(=O)CCCCCC(=O)n2nc(N)c3c(-c4cccc(NC(=O)Nc5cccc(Cl)c5)c4)cccc32)C(C)(C)C)cc1
IC50 [1]: 0.0422 µM
IC50 [2]: 20 µM
IC50 (A549): > 100 µM
IC50 (MDA-MB-453): > 100 µM
Activity (HEK293): Non-Toxic
Activity [3]: Active
Activity [4]: Active
Activity [15]: inactive
Activity [16]: inactive
Activity [17]: inactive
viability at 0.1 µM (EA.hy 926 [18]): 91.3%
Activity (EA.hy 926 [19]): 0.57%
Activity (EA.hy 926 [20]): 1.77%
Activity (EA.hy 926 [21]): 6.32%
viability at 1 µM (EA.hy 926 [22]): 93.1%
Activity (EA.hy 926 [23]): 0.96%
Activity (EA.hy 926 [24]): 3.2%
Activity (EA.hy 926 [25]): 2.75%
viability at 10 µM (EA.hy 926 [26]): 91.4%
Activity (EA.hy 926 [27]): 0.77%
Activity (EA.hy 926 [28]): 2.62%
Activity (EA.hy 926 [29]): 5.23%
viability at 20 µM (EA.hy 926 [30]): 88.1%
Activity (EA.hy 926 [31]): 0.86%
Activity (EA.hy 926 [32]): 3.93%
Activity (EA.hy 926 [33]): 7.08%
viability at 40 µM (EA.hy 926 [34]): 92.2%
Activity (EA.hy 926 [35]): 1.44%
Activity (EA.hy 926 [36]): 2.62%
Activity (EA.hy 926 [37]): 3.7%
Activity (EA.hy 926 [8]): Active
Activity (EA.hy 926 [38]): Active

Nc1n[nH]c2cccc(-c3cccc(NC(=O)Nc4cccc(Cl)c4)c3)c12
IC50 [2]: 7.33 µM
IC50 (A549): 15.8 µM
IC50 (MDA-MB-453): > 100 µM
Activity (HEK293): Non-Toxic
